Data: patent US20250321225A1, “SKIN DAMAGE ORGANOID MODEL AND DRUG SCREENING METHOD USING THE SAME” (KANGSTEM BIOTECH CO., LTD., priority 2023, published 2025)

Assays:
Type in all cases: cell-based, human
hair follicles in SkOs = test: Hair follicle damage in sUV-exposed SkOs
Description: The effects of sUV exposure on skin appendages in the dermis of SkOs were investigated. As a result, it was confirmed that the expression of a KRT5 marker constituting the outer layer of a hair follicle in SkOs was reduced. […] Accordingly, to thoroughly compare the extent of hair follicle damage, hair follicles were isolated from each skin organoid and subjected to qRT-PCR analysis. […] To determine the optimal concentration of UCB-Exos for alleviating SkO damage by sUV, SkOs were treated with different concentrations of UCB-Exos two hours after sUV exposure, and this procedure was repeated three times (FIG. 5A). […] The effect of UCB-Exos on hair follicles in SkOs was investigated. In the hair follicles, apoptosis (cleaved caspase-3^+) was reduced, and the number of regenerating cells (Ki67^+) increased (FIGS. 6A and 6B). In addition, keratinocytes and fibroblasts in the hair follicles aged by sUV are known to secrete MMPs and inflammatory cytokines known as a senescence-associated secretory phenotype (SASP).

NF-κB = test: IκB/NF-κB signaling in sUV-exposed SkOs (Western blotting, immunofluorescence)
Text: NF-κB is known to play an important role in regulating the expression of immune mediators. […] When activated by external stimuli such as inflammatory cytokines or cellular stress, the IκBα protein is phosphorylated and subsequently degraded, releasing NF-κB from the NF-κB-IκB complex. The released NF-κB translocates to the cell nucleus to promote the transcription of genes involved in inflammation and induce cytokine production. Considering the above, the present inventors investigated whether IκB-dependent NF-κB activation mediates the inflammatory response in hair follicles.
This caused the disruption of the NF-κB-IκB complex which activated NF-κB and caused it to translocate to the nucleus, as evidenced by increased NF-κB expression in the nuclear compartment of SkOs exposed to sUV. After treating the sUV-exposed SkOs with UCB-Exos, it was observed that both IκBα phosphorylation and degradation decrease, and nuclear translocation of NF-κB was inhibited (FIGS. 7A and 7B). […] Generally, hair follicles are composed of keratinocytes and fibroblasts, both of which play an important role in skin inflammatory responses. […] Meanwhile, the epidermis of SkOs, which is the uppermost layer exposed to sUV, was also inflamed, which may extend to the dermis and indirectly damage hair follicles (FIGS. 7G and 7H).
To evaluate the direct effect of UCB-Exos alleviating sUV-induced damage by NF-κB activation, the present inventors treated a sUV-damaged organoid with the NF-κB inhibitor, BAY11-7082. BAY11-7082 is known to inhibit the translocation of NF-κB to the nucleus by inhibiting the degradation of IκBα unit, thereby preventing further activation of NF-κB signaling.
As expected, it was confirmed that IL-6 expression was positively correlated with the expression level of NF-κB (FIGS. 8A and 8B).

[1] = system: inflammatory cytokines, such as IL-6, TNF-α, and IL-1β; test: Inflammatory cytokine expression and secretion in sUV-exposed SkOs (qPCR, immunofluorescence, ELISA)
Description: It is known that sUV irradiation causes the secretion of pro-inflammatory cytokines in skin tissue, leading to skin inflammation and subsequent skin damage. Accordingly, it was investigated whether sUV exposure can also affect hair follicles and induce an inflammatory response in the dermis of SkOs.
Furthermore, the secretion of inflammatory cytokines, such as IL-6, TNF-α, and IL-1β, increased by sUV exposure, was evaluated by ELISA.

normal hair follicles = test: Hair follicle growth in normal hair follicle organoid; conditions: for hair follicle length compared to the control: 14 days after drug treatment
Text: The hair follicle growth was compared after treatment with each of minoxidil, which is known to promote hair follicle growth, and dihydrotestosterone (DHT), which is an endogenous hormone causing hair loss.

Compound | apoptosis / death rate in hair follicles (hair follicles in SkOs; Example 6) | mRNA expression of ECM components associated with inflammatory cytokines and SASP (hair follicles in SkOs; hair follicles) | IκBα degradation (NF-κB; Western blotting, Example 6) | NF-κB nuclear translocation / activation / levels (NF-κB; Western blotting, Example 6) | phosphorylated IκBα (NF-κB; Western blotting, Example 6) | NF-κB translocation to the nuclei in hair follicles (NF-κB; immunofluorescence staining) | difference in IL-6 and TNF-α secretion between BAY11-7082-treated SkOs and UCB-Exos-treated SkOs ([1]; ELISA) | IL-6 in the cytoplasm in hair follicles ([1]; immunofluorescence staining) | hair follicle length compared to the control (normal hair follicles) | expression of genes (IGF-1, WNT3A) associated with hair growth promotion (normal hair follicles; compared to the control) | hair loss-associated genes (DKK1, TGFb-2) (normal hair follicles; compared to the control)
Cc1ccc(S(=O)(=O)/C=C/C#N)cc1 [BAY11-7082] | reduced | dramatically reduced | inhibition | reduced | decreased | significant decrease | no significant difference | significant decrease | approximately 1.4 fold | upregulated | downregulated
Nc1cc(N2CCCCC2)nc(N)[n+]1[O-] [minoxidil] |  |  |  |  |  |  |  |  | approximately 1.3 fold |  | 
C[C@]12CCC(=O)C[C@@H]1CC[C@@H]1[C@@H]2CC[C@]2(C)[C@@H](O)CC[C@@H]12 [DHT, dihydrotestosterone] |  |  |  |  |  |  |  |  | approximately 0.7 fold |  | 
